Common to all, as to type: biochemical
One assay addresses T1, RSK1 (Homo sapiens, UniProt Q15418).
T1 construct: gene RPS6KA1
Kind of assay: ProfilerPro kinase panel, single concentration […].

The next assay addresses T2, AurA (Homo sapiens, UniProt O14965).
T2 construct: gene AURKA
T2 sequence (O14965 1-403): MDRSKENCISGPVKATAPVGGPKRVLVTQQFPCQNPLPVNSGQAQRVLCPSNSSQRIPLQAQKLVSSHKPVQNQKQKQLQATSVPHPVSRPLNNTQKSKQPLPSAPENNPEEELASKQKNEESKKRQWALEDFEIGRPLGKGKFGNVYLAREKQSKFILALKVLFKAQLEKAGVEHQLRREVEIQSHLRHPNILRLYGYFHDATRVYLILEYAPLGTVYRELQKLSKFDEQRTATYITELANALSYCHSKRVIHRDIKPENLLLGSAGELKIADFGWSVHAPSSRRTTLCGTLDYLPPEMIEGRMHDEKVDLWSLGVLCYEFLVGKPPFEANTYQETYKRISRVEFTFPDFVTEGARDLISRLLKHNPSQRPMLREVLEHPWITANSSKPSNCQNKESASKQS
As to the kind of experiment: ProfilerPro kinase panel, single concentration […].

The target in a further assay is T3, CHK2 (Homo sapiens, UniProt O96017).
T3 construct: gene CHEK2
Kind of assay: ProfilerPro kinase panel, single concentration […].

For a further assay, the target named is T4, PKD2 (Homo sapiens, UniProt Q9BZL6).
T4 construct: gene PRKD2
T4 sequence (Q9BZL6 1-878): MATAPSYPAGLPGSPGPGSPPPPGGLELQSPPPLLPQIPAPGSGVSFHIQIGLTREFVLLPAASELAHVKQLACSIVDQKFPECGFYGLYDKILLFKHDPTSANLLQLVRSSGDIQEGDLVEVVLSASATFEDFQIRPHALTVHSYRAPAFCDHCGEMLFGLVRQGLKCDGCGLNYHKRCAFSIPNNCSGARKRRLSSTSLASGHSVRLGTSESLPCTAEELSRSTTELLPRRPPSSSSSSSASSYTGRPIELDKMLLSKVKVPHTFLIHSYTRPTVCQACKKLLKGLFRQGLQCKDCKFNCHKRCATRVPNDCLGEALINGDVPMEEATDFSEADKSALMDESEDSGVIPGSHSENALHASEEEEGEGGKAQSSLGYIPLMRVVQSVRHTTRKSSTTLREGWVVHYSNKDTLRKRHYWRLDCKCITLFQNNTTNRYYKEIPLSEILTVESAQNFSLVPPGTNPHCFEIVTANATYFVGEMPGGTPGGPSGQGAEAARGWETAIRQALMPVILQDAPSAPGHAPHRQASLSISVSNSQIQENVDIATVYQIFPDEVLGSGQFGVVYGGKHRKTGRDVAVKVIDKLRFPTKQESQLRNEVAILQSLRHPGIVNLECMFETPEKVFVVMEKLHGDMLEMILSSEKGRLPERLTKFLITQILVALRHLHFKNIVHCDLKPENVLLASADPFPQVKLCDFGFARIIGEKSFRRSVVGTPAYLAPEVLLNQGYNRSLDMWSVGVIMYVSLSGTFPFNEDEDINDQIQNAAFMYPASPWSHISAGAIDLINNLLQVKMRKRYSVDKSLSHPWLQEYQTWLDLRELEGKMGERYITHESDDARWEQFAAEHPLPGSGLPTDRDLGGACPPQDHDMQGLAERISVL
Kind of assay: ProfilerPro kinase panel, single concentration […].

In a further assay the target is INSR (Homo sapiens, UniProt P06213). As to the kind of experiment: ProfilerPro kinase panel, single concentration […].
Assay [1] addresses T5, ABL (Homo sapiens, UniProt P00519).
T5 construct: gene ABL1
Kind of assay: kinase inhibition IC50 (Invitrogen), following ProfilerPro kinase panel ([…] at […]).

Assay [2] concerns the target T5, ABL. The description is as above. This is another data set of the same source.

Inhibition and IC50 data for 4 molecules are collected here from article PMC4718143, “A novel protocol for the one-pot borylation/Suzuki reaction provides easy access to hinge-binding groups for kinase inhibitors” (Organic & Biomolecular Chemistry, 2015).

The structures appear in SMILES notation. Like-named read-outs stand apart in the source and are kept apart here.

T5 sequence (P00519 whole entry): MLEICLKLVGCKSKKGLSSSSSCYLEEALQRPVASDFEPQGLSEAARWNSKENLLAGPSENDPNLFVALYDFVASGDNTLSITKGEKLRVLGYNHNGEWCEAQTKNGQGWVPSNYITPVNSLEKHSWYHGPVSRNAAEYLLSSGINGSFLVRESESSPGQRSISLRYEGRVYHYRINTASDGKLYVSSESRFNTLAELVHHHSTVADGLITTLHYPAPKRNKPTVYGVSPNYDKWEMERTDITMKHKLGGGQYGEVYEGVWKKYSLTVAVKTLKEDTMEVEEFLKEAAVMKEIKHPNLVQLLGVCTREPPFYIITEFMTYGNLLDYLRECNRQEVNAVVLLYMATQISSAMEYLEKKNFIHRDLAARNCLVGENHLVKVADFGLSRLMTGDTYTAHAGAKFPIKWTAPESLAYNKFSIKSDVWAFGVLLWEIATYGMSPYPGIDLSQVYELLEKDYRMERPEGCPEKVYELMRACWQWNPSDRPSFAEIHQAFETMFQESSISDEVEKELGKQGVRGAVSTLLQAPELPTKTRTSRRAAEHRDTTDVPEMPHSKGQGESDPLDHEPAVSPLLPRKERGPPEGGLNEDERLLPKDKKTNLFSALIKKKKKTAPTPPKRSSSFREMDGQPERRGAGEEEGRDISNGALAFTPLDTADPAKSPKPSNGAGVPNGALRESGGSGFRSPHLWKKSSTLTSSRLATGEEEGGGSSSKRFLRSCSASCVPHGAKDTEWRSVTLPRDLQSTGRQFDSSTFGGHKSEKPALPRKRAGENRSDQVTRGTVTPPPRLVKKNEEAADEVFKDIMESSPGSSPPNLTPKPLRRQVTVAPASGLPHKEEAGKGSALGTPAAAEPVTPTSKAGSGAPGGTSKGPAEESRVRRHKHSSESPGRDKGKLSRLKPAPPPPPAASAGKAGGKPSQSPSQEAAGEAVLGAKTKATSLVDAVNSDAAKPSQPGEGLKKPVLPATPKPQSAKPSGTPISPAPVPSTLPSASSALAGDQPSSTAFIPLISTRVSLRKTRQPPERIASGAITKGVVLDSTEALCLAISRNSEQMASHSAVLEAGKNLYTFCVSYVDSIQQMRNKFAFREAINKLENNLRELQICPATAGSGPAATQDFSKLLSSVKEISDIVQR
T1 sequence (Q15418 whole entry): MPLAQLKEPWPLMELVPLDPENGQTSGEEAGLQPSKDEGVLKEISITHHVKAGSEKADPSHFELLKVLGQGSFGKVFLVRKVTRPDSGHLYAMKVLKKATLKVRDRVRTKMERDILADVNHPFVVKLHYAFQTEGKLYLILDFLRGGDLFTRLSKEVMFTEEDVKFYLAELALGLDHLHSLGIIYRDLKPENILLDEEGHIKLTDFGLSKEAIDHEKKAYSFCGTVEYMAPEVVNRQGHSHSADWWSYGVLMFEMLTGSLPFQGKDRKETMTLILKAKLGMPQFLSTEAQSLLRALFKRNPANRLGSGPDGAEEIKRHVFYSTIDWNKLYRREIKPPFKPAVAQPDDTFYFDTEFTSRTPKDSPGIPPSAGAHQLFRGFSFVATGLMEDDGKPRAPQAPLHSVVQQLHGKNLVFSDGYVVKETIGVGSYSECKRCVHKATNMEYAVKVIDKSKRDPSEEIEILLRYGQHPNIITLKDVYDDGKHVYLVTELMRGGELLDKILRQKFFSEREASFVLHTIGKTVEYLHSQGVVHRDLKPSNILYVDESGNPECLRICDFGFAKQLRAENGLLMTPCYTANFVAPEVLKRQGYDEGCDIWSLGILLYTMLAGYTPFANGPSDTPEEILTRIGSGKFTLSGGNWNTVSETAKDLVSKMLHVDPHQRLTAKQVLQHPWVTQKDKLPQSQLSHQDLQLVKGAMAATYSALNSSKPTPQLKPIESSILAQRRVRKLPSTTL
T3 sequence (O96017 whole entry): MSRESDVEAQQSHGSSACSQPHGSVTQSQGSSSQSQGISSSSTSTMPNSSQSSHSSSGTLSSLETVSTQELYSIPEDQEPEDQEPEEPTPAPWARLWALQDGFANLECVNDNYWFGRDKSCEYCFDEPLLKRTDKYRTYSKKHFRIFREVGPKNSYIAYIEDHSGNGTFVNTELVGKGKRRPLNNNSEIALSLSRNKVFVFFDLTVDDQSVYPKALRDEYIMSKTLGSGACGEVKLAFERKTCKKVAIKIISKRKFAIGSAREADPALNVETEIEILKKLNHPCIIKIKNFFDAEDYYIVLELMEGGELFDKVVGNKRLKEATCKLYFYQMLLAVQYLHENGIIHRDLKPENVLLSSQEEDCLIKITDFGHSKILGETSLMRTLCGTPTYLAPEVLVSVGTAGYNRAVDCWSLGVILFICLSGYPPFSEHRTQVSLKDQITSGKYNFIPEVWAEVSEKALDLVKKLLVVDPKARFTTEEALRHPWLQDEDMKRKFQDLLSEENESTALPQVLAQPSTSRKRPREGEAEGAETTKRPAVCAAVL
Sequence of INSR (P06213 28-758): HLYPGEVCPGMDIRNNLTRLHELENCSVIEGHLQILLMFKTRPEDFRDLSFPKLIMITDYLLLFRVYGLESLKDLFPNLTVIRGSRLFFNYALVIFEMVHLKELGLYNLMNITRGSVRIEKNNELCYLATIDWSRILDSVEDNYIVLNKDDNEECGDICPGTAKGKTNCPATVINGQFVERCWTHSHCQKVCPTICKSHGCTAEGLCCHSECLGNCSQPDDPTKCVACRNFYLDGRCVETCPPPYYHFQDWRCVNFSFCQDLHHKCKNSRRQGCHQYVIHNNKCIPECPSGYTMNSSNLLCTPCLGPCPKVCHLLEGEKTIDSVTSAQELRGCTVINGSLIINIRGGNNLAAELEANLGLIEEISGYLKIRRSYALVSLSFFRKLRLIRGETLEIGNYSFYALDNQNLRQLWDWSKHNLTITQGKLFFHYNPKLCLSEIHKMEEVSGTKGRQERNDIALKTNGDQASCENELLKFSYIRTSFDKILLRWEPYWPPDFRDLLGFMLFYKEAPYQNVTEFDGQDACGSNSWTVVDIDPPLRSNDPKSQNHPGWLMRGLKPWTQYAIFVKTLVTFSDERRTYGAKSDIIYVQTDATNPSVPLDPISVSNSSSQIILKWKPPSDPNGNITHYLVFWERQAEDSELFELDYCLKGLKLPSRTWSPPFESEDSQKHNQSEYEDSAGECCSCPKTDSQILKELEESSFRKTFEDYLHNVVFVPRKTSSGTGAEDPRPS
Sequence of INSR (P06213 763-1382): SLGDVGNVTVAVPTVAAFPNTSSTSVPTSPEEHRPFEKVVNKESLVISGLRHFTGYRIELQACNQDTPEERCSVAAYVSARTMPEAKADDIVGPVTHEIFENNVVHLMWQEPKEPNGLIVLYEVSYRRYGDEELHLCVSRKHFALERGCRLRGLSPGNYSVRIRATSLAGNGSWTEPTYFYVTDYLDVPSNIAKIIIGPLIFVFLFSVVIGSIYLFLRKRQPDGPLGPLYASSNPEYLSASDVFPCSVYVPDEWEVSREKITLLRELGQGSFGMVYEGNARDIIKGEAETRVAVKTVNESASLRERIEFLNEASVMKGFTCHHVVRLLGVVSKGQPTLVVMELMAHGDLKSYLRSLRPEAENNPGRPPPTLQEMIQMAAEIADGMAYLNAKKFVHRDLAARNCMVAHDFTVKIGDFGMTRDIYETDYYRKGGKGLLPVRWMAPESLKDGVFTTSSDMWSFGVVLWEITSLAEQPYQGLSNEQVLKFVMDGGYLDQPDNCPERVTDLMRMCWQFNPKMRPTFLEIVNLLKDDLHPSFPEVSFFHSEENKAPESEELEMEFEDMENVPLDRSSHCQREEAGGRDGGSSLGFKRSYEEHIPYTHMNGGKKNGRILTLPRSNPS

In general, inhibition refers to the percentage by which the read-out fell short of the control. Higher therefore signals strong suppression. Molecule `Clc1ccc(-c2cnc3[nH]ccc3c2)cc1` [4j] gave an inhibition at 300 µM against RSK1 of 91%. Consider `c1ccc(-c2cnc3[nH]ccc3c2)cc1` [4n], for which the inhibition at 300 µM at AurA is 99%; at CHK2 it was 91%; at PKD2, 92%; at INSR, 93%. The IC50 is the concentration that gives 50% inhibition. `c1ccc(-c2ccc3ncccc3c2)cc1` [4o] yielded an IC50 at ABL [1] of 8.11 µM. In turn, `Clc1ccnc2ccc(-c3ccccc3)cc12` [4p] yielded an IC50 against ABL [2] of 19.2 µM.
